From patent US11135320B2, “Radioligands for pretargeted pet imaging and methods of their therapeutic use” (priority 2015, dated 2021)
“And” between values parts separate entries of the source, which are not always exact repeats. Equal entries are not always repeated.

Test: Acute biodistribution of ^64Cu-labeled tetrazine radioligands in healthy mice
Assay type: in vivo, athymic nude mice
Conditions: for Large Intestine activity concentration / Small Intestine activity concentration / Stomach activity concentration: contents not removed
Experimental: (§1) Mice were administered ^64Cu-Tz-NOTA (25-30 μCi in 200 μL 0.9% sterile saline) via intravenous tail vein injection. Animals (n=4 per group) were euthanized by CO2(g) asphyxiation at 1, 4, and 24 h after injection. After asphyxiation, tissues were removed, rinsed in water, dried in air for 5 min, weighed, and counted in a gamma counter calibrated for ^64Cu. Counts were converted into activity using a calibration curve generated from known standards. Count data were background- and decay-corrected to the time of injection, and the percent injected dose per gram (% ID/g) for each tissue sample was calculated by normalization to the total activity injected. Contents within the stomach, small intestine, and large intestine were not removed for the measurements.
as §1, with “^64Cu-Tz-PEG7-NOTA” for “^64Cu-Tz-NOTA”
as §1, with “^64Cu-Tz-SarAr” for “^64Cu-Tz-NOTA”
as §1, with “Healthy female athymic nude mice (n=4 per radioligand) were” for “Mice were”, “administered ^64Cu-Tz-PEG7-NOTA or ^64Cu-Tz-SarAr” for “administered ^64Cu-Tz-NOTA”, “vein injection (t=0).” for “vein injection.”, “4, 12,” for “4,”, “injected.” for “injected. Contents within the stomach, small intestine, and large intestine were not removed for the measurements.”

`O=C([O-])CN1CCN(CC(=O)[O-])CC(Cc2ccc(NC(=O)CCCC(=O)NCc3ccc(-c4nncnn4)cc3)cc2)N(CC(=O)[O-])CC1.[64Cu+2]` (stereo not drawn) [^64Cu-Tz-NOTA] showed a Blood activity concentration (1 h p.i.) of 0.23 ± 0.01 % ID/g, a Bone activity concentration (1 h p.i.) of 0.10 ± 0.03 % ID/g and a Heart activity concentration (1 h p.i.) of 0.10 ± 0.02 % ID/g. It also gave a Kidney activity concentration (1 h p.i.) of 0.53 ± 0.09 % ID/g, a Liver activity concentration (1 h p.i.) of 1.45 ± 0.39 % ID/g and a Lung activity concentration (1 h p.i.) of 0.38 ± 0.06 % ID/g. The Muscle activity concentration (1 h p.i.) was 0.04 ± 0.02 % ID/g, the Spleen activity concentration (1 h p.i.) was 0.15 ± 0.05 % ID/g and the “Large Intestine activity concentration” value (1 h p.i.) was 11.58 ± 2.19 % ID/g. The “Small Intestine activity concentration” value (1 h p.i.) was 3.14 ± 1.47 % ID/g, the Stomach activity concentration (1 h p.i.) was 0.12 ± 0.04 % ID/g and the Blood activity concentration (4 h p.i.) was 0.13 ± 0.01 % ID/g. The Bone activity concentration (4 h p.i.) was 0.07 ± 0.04 % ID/g, the Heart activity concentration (4 h p.i.) was 0.11 ± 0.02 % ID/g and the Kidney activity concentration (4 h p.i.) was 0.33 ± 0.07 % ID/g. The Liver activity concentration (4 h p.i.) was 0.42 ± 0.13 % ID/g, the Lung activity concentration (4 h p.i.) was 0.27 ± 0.08 % ID/g and the Muscle activity concentration (4 h p.i.) was 0.03 ± 0.02 % ID/g. The Spleen activity concentration (4 h p.i.) was 0.09 ± 0.02 % ID/g, the “Large Intestine activity concentration” value (4 h p.i.) was 10.0±1.3 % ID/g and 10.03 ± 1.33 % ID/g and the “Small Intestine activity concentration” value (4 h p.i.) was 0.17 ± 0.07 % ID/g. It also gave a Stomach activity concentration (4 h p.i.) of 0.05 ± 0.03 % ID/g, a Blood activity concentration (24 h p.i.) of 0.07 ± 0.01 % ID/g and a Bone activity concentration (24 h p.i.) of 0.03 ± 0.01 % ID/g. The Heart activity concentration (24 h p.i.) was 0.09 ± 0.01 % ID/g, the Kidney activity concentration (24 h p.i.) was 0.22 ± 0.07 % ID/g and the Liver activity concentration (24 h p.i.) was 0.21 ± 0.06 % ID/g. It also gave a Lung activity concentration (24 h p.i.) of 0.21 ± 0.02 % ID/g, a Muscle activity concentration (24 h p.i.) of 0.03 ± 0.03 % ID/g and a Spleen activity concentration (24 h p.i.) of 0.08 ± 0.02 % ID/g. The “Large Intestine activity concentration” value (24 h p.i.) was 1.4±0.7 % ID/g and 1.37 ± 0.65 % ID/g, the “Small Intestine activity concentration” value (24 h p.i.) was 0.10 ± 0.02 % ID/g and the Stomach activity concentration (24 h p.i.) was 0.18 ± 0.11 % ID/g.
Work on `O=C(O)CN1CCN(CC(=O)O)CC(Cc2ccc(NC(=S)NCCOCCOCCOCCOCCOCCOCCOCCNC(=O)CCCC(=O)NCc3ccc(-c4nncnn4)cc3)cc2)N(CC(=O)O)CC1.[64Cu]` (stereo not drawn) [^64Cu-Tz-PEG7-NOTA] yielded a Blood activity concentration (1 h p.i.) of 0.38 ± 0.14 % ID/g, a Bone activity concentration (1 h p.i.) of 0.09 ± 0.06 % ID/g and a Heart activity concentration (1 h p.i.) of 0.17 ± 0.02 % ID/g. The Kidney activity concentration (1 h p.i.) was 1.5±0.2 % ID/g and 1.51 ± 0.24 % ID/g, the Liver activity concentration (1 h p.i.) was 0.77 ± 0.11 % ID/g and the Lung activity concentration (1 h p.i.) was 0.49 ± 0.11 % ID/g. The Muscle activity concentration (1 h p.i.) was 0.05 ± 0.01 % ID/g, the Spleen activity concentration (1 h p.i.) was 0.19 ± 0.01 % ID/g and the “Large Intestine activity concentration” value (1 h p.i.) was 6.35 ± 0.69 % ID/g. The “Small Intestine activity concentration” value (1 h p.i.) was 0.5 ± 0.26 % ID/g, the Stomach activity concentration (1 h p.i.) was 0.18 ± 0.06 % ID/g and the Blood activity concentration (4 h p.i.) was 0.26 ± 0.14 % ID/g. The Bone activity concentration (4 h p.i.) was 0.07 ± 0.02 % ID/g, the Heart activity concentration (4 h p.i.) was 0.18 ± 0.03 % ID/g and the Kidney activity concentration (4 h p.i.) was 1.2±0.4 % ID/g and 1.23 ± 0.39 % ID/g. The Liver activity concentration (4 h p.i.) was 0.63 ± 0.2 % ID/g, the Lung activity concentration (4 h p.i.) was 0.35 ± 0.13 % ID/g and the Muscle activity concentration (4 h p.i.) was 0.03 ± 0.02 % ID/g. For the same molecule, the Spleen activity concentration (4 h p.i.) was 0.14 ± 0.02 % ID/g, the “Large Intestine activity concentration” value (4 h p.i.) was 4.9±0.7 % ID/g and 4.91 ± 0.71 % ID/g and the “Small Intestine activity concentration” value (4 h p.i.) was 0.3 ± 0.14 % ID/g. For the same molecule, the Stomach activity concentration (4 h p.i.) was 0.36 ± 0.25 % ID/g, the Blood activity concentration (24 h p.i.) was 0.08 ± 0.01 % ID/g and the Bone activity concentration (24 h p.i.) was 0.06 ± 0.01 % ID/g. It also gave a Heart activity concentration (24 h p.i.) of 0.09 ± 0.01 % ID/g, a Kidney activity concentration (24 h p.i.) of 0.86 ± 0.11 % ID/g and a Liver activity concentration (24 h p.i.) of 0.32 ± 0.11 % ID/g. The Lung activity concentration (24 h p.i.) was 0.17 ± 0.03 % ID/g, the Muscle activity concentration (24 h p.i.) was 0.02 ± 0.01 % ID/g and the Spleen activity concentration (24 h p.i.) was 0.12 ± 0.01 % ID/g. For the same molecule, the “Large Intestine activity concentration” value (24 h p.i.) was 0.40 ± 0.15 % ID/g, the “Small Intestine activity concentration” value (24 h p.i.) was 0.10 ± 0.01 % ID/g and the Stomach activity concentration (24 h p.i.) was 0.09 ± 0.02 % ID/g.
With `NC12CNCCNCC(NCc3ccc(CNC(=O)CCCC(=O)NCc4ccc(-c5nncnn5)cc4)cc3)(CNCCNC1)CNCCNC2.[64Cu+2]` [^64Cu-Tz-SarAr] the Blood activity concentration (1 h p.i.) was 0.42 ± 0.11 % ID/g, the Bone activity concentration (1 h p.i.) was 0.12 ± 0.03 % ID/g and the Heart activity concentration (1 h p.i.) was 0.22 ± 0.06 % ID/g. For the same molecule, the Kidney activity concentration (1 h p.i.) was 2.3±0.4 % ID/g and 2.34 ± 0.35 % ID/g, the Liver activity concentration (1 h p.i.) was 0.72 ± 0.03 % ID/g and the Lung activity concentration (1 h p.i.) was 0.32 ± 0.06 % ID/g. The Muscle activity concentration (1 h p.i.) was 0.05 ± 0.03 % ID/g, the Spleen activity concentration (1 h p.i.) was 0.38 ± 0.06 % ID/g and the “Large Intestine activity concentration” value (1 h p.i.) was 0.07±0.01 % ID/g. The “Small Intestine activity concentration” value (1 h p.i.) was 0.29 ± 0.21 % ID/g, the Stomach activity concentration (1 h p.i.) was 0.24 ± 0.14 % ID/g and the Blood activity concentration (4 h p.i.) was 0.15 ± 0.01 % ID/g. The Bone activity concentration (4 h p.i.) was 0.09 ± 0.01 % ID/g, the Heart activity concentration (4 h p.i.) was 0.12 ± 0.02 % ID/g and the Kidney activity concentration (4 h p.i.) was 1.57 ± 0.19 % ID/g. It also gave a Liver activity concentration (4 h p.i.) of 0.42 ± 0.24 % ID/g, a Lung activity concentration (4 h p.i.) of 0.31 ± 0.09 % ID/g and a Muscle activity concentration (4 h p.i.) of 0.04 ± 0.01 % ID/g. The Spleen activity concentration (4 h p.i.) was 0.2 ± 0.05 % ID/g, the “Large Intestine activity concentration” value (4 h p.i.) was 0.08 ± 0.03 % ID/g and the “Small Intestine activity concentration” value (4 h p.i.) was 0.16 ± 0.03 % ID/g. The Stomach activity concentration (4 h p.i.) was 0.2 ± 0.1 % ID/g, the Blood activity concentration (24 h p.i.) was 0.06 ± 0.01 % ID/g and the Bone activity concentration (24 h p.i.) was 0.08 ± 0.02 % ID/g. It also gave a Heart activity concentration (24 h p.i.) of 0.08 ± 0.02 % ID/g, a Kidney activity concentration (24 h p.i.) of 1.26 ± 0.41 % ID/g and a Liver activity concentration (24 h p.i.) of 0.28 ± 0.07 % ID/g. For the same molecule, the Lung activity concentration (24 h p.i.) was 0.24 ± 0.06 % ID/g, the Muscle activity concentration (24 h p.i.) was 0.03 ± 0.01 % ID/g and the Spleen activity concentration (24 h p.i.) was 0.21 ± 0.04 % ID/g. For the same molecule, the “Large Intestine activity concentration” value (24 h p.i.) was 0.07 ± 0.01 % ID/g, the “Small Intestine activity concentration” value (24 h p.i.) was 0.07 ± 0.01 % ID/g and the Stomach activity concentration (24 h p.i.) was 0.05 ± 0.01 % ID/g.
